# Data taken from article PMC9501983, “Transport and Permeation Properties of Dapivirine: Understanding Potential Drug-Drug Interactions” (Pharmaceutics, 2022).
# Tests used:
# MRP1 = MRP1 (Homo sapiens, UniProt P33527)
# Procedure: (§1) To investigate if DPV was a substrate or inhibitor of MRP1 or MRP4, ATP-dependent and independent uptake of DPV (in the substrate study) or estradiol 17 β-D-glucuronide (a known MRP1/MRP4 substrate in the inhibitor study) was measured using 50 μg MRP1, MRP4, and control vesicles. […] The uptake assay was performed at a total volume of 50 μL with either 4 mM ATP or AMP, 2 mM glutathione, 10 μM DPV or estradiol 17 β-D-glucuronide as substrates, with and without 20 μM DPV or MK571 as inhibitors. […] To quantify the uptake amount of DPV or estradiol 17 β-D-glucuronide, 4 μCi mL^−1 3H-DPV or ^3H- estradiol 17 β-D-glucuronide was added to the assay mixture.
# (§2) The vesicular uptake assays were performed under the above-mentioned conditions. The membrane vesicles were first incubated with respective inhibitor solution or blank assay buffer. The reaction was then initiated by adding the remaining components of the assay mixture to the vesicles and incubated at 37 °C for 3 min. To terminate the reaction, 200 μL ice-cold buffer was added to each well. The samples were then transferred to a glass fiber filter plate and washed 5 times by rapid filtration using a vacuum manifold (IBI Scientific, Dubuque, IA, USA). To quantify ^3H-DPV and ^3H-estradiol 17 β-D-glucuronide uptake, the washed vesicles were lysed with scintillation cocktail at room temperature for 20 min. The collected samples were analyzed on an LS6500 liquid scintillation counter (Beckman Coulter, Brea, CA, USA).
# (§3) If ATP-dependent uptake was observed, the uptake amount by active transport was calculated using Equation (1):(1) Normalized uptake=mean uptake with ATP−mean uptake with AMP
# MRP4 = biological target: T1, MRP4 (Homo sapiens, UniProt O15439); test: in vitro
# T1 sequence (O15439 1-1325): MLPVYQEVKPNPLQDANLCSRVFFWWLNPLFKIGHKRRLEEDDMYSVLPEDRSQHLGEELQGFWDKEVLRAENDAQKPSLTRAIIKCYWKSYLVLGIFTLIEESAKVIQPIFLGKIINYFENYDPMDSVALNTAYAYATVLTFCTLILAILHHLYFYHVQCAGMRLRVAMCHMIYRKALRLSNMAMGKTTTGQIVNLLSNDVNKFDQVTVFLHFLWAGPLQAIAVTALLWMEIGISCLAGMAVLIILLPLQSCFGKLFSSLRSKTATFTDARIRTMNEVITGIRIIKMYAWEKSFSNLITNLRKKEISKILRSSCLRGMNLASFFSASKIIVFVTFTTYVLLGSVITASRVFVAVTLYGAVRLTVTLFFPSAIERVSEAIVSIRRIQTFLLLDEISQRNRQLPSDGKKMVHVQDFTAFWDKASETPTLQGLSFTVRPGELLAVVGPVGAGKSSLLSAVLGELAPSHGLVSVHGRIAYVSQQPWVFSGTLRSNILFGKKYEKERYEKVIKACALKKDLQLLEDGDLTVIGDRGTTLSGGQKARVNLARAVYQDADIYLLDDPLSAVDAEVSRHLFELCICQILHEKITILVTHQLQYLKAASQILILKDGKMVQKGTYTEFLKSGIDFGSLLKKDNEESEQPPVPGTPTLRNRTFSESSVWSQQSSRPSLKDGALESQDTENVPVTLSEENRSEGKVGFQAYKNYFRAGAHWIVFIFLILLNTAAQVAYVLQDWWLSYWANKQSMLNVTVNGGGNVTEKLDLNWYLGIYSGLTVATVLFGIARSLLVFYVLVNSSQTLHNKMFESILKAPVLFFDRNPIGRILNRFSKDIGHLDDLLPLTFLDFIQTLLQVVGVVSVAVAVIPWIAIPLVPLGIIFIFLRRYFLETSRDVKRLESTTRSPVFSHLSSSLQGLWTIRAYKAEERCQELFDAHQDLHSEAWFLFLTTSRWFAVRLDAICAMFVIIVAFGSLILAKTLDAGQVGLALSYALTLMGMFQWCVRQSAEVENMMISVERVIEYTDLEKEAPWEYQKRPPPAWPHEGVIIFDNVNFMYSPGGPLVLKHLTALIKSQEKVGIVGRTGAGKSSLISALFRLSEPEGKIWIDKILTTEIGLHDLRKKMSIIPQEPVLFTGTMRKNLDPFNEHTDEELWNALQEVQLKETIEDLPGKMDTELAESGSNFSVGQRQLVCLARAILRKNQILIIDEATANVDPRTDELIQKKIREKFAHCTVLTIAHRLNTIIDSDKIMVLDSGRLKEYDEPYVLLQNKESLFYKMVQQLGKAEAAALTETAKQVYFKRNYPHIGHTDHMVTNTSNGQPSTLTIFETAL
# Procedure: as §1, §2, §3
# HEC-1-A cells = test: Tight junction disruption, TEER of HEC-1-A monolayers in Ussing chamber; format: cell-based, human; conditions: apical treatment in HBSS without Ca/Mg; DPV 5 μM, MIC 5 μM, combination 5 μM each, EGTA 2 mM
# Procedure: HEC-1-A cells were seeded at a density of 9000 cells per cm^2 onto 0.4 μm permeable snapwell inserts (Corning Inc., Corning, NY, USA). […] Only monolayers displaying TEER values above the threshold indicating confluency (130 Ωcm^2) were considered qualified to be used in this study.
# To evaluate tight junction disruption, qualified HEC-1-A cell monolayers were mounted onto the Ussing Chamber apparatus (Physiologic Instruments, San Diego, CA, USA) to monitor TEER values. After equilibrating cells with HBSS at 37 °C for 20 min, buffer in basolateral chambers was replaced with HBSS without calcium or magnesium (HBSS Ca^−&Mg^−), while buffer in the apical chambers was replaced with respective treatment solution in HBSS Ca^−&Mg^-. Treatments included 5 μM DPV, 5 μM MIC, and 5 μM DPV with 5 μM MIC. 2 mM EGTA, a known tight junction disruptor that decreases TEER, was used as the positive control and blank HBSS Ca^-&Mg^- was used as negative control. Cells were incubated at 37 °C for 80 min and the obtained TEER values were normalized against initial measurements at time 0.
# human cervical tissue = test: Histology (H&E) of human cervical tissue after permeability assay; conditions: 6-h exposure, clinically relevant concentrations
# Procedure: Gross morphology of tissue samples was evaluated using hematoxylin and eosin (H&E) staining. After fixation in formalin, tissue samples were dehydrated in alcohol, cleared in xylene, and embedded in paraffin wax. Five-micron sections of embedded tissue were used to perform H&E staining following manufacturer’s procedures (hematoxylin for 5 min, bluing reagent for 15 s, and eosin for 2 min) and mounted onto microscope slides using Cytoseal 60. Images were acquired using the AxioCam software, version 4.9.1 (Carl Zeiss, San Diego, CA, USA) paired with the microscope, Axioskop 40 (Carl Zeiss, San Diego, CA, USA).
# CYP3A4 = tested on: CYP3A4; parameters: method as in PMID 34959473; conditions: cited from earlier work
# [1] = 10 μM substrate, 20 μM test inhibitor, ATP minus AMP
# MRP1, sequence (P33527 whole entry): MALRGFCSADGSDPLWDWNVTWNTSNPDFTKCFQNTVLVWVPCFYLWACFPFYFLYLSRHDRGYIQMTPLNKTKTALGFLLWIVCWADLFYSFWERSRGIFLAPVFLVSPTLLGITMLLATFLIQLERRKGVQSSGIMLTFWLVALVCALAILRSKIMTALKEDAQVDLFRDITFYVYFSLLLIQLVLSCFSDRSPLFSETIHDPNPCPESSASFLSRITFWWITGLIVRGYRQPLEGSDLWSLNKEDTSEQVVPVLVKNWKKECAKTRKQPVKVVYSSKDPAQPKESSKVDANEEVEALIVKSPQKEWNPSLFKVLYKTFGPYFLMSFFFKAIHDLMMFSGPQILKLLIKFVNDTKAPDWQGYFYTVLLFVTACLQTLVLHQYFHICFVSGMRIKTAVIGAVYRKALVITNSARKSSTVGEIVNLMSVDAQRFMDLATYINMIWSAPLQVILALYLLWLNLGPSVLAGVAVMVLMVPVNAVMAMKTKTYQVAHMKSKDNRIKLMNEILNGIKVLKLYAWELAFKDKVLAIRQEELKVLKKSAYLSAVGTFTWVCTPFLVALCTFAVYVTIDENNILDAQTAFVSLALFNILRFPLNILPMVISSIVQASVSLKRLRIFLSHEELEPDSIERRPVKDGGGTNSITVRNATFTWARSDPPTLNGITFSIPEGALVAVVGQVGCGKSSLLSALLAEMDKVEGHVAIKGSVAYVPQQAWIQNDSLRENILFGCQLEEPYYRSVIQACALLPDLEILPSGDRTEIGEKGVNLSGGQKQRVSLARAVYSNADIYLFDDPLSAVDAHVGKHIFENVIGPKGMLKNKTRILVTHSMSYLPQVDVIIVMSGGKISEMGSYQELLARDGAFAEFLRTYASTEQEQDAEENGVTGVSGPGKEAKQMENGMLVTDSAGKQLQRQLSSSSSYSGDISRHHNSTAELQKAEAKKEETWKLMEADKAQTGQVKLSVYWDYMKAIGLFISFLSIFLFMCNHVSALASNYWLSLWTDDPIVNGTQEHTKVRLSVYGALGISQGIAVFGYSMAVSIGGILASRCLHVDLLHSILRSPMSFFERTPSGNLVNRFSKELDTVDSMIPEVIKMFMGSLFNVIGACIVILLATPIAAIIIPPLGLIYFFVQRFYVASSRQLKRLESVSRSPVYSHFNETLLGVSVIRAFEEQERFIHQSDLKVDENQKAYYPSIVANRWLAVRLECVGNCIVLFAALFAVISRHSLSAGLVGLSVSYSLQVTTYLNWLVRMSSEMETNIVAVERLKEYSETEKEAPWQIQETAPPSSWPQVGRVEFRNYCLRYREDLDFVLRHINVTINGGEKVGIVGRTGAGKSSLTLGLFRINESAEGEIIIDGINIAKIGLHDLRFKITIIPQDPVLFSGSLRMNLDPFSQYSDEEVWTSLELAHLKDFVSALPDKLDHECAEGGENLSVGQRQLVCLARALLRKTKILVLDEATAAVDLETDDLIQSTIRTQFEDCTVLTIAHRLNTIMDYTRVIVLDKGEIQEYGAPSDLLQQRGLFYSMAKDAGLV
smiles,measurement,setting,value
"Cc1cc(C)c(Nc2ccnc(Nc3ccc(C#N)cc3)n2)c(C)c1 [DPV, dapivirine]",Substrate status for MRP1,MRP1,not a substrate
same,Normalized estradiol 17 β-D-glucuronide uptake by MRP1 vesicles co-incubated with inhibitor,MRP1; [1],35.83 fmol
same,"Active uptake of estradiol 17 β-D-glucuronide by MRP1 vesicles, reduced to % of control",MRP1; 20 µM,not significantly affected
same,Substrate status for MRP4,MRP4,not a substrate
same,Normalized estradiol 17 β-D-glucuronide uptake by MRP4 vesicles co-incubated with inhibitor,MRP4; [1],14.08 fmol
same,"Active uptake of estradiol 17 β-D-glucuronide by MRP4 vesicles, reduced to % of control",MRP4; 20 µM,not significantly affected
same,Relative TEER percentage of baseline value at 80 min,HEC-1-A cells,94.7 ± 7.8%
same,Gross morphology of human cervical epithelium after exposure,human cervical tissue,did not alter the gross morphology
same,Substrate of CYP3A4,CYP3A4,substrate
